Like-named read-outs stand apart in the source and are kept apart here.
Key:
[1] = tested on: A431 (ATCC: CRL-1555); assay: Test of cancer cell growth inhibition (SRB), A431; details: read-out: IC50 A431
[2] = tested on: SK-Br3 (ATCC: HTB-30); assay: Test of cancer cell growth inhibition (SRB), SK-Br3; details: read-out: IC50 SK-Br-3
[3] = EGFR overexpressed A431, 72 hours, SRB
[4] = Erb-B2 overexpressed SK-Br3, 72 hours, SRB

## CN1CCN(CC(=O)NCCC(=O)Nc2ccc3ncnc(Nc4ccc(OCc5cccc(F)c5)c(Cl)c4)c3c2)CC1 [Example 64, N-{4-[3-chloro-4-(3-fluoro-benzyloxy)-phenylamino]-quinazolin-6-yl}-3-[2-(4-methyl-piperazin-1-yl)-acetylamino]-propionamide]
[1]; Homo sapiens, A-431, 72 h
  IC50: 698 nM
[2]; Homo sapiens, SK-BR-3, 72 h
  IC50: 212 nM

## C=CC(=O)N1CCC1C(=O)Nc1cc2c(Nc3ccc(OCc4ccccn4)c(Cl)c3)ncnc2cc1OCC (centres unmarked) [Example 199, 1-acryloyl-azetidine-2-carboxylic acid {4-[3-chloro-4-(pyridin-2-ylmethoxy)-phenylamino]-7-ethoxy-quinazolin-6-yl}-amide]
[1]; Homo sapiens, A-431, 72 h
  IC50: 145 nM
[2]; Homo sapiens, SK-BR-3, 72 h
  IC50: 96 nM

## COc1cc2ncnc(Nc3ccc(OCc4ccccn4)c(Cl)c3)c2cc1NC(=O)[C@@H]1CCCN1C(=O)C=CCN(C)C [Example 175, (2S)-1-(4-dimethylamino-buten-2-oyl)-pyrrolidine-2-carboxylic acid {4-[3-chloro-4-(pyridin-2-ylmethoxy)-phenylamino]-7-methoxy-quinazolin-6-yl}-amide]
[1]; [3]
  IC50: 48 nM
[2]; [4]
  IC50: 26 nM

## O=C(C=Cc1ccccc1)NCCC(=O)Nc1ccc2ncnc(Nc3ccc(OCc4cccc(F)c4)c(Cl)c3)c2c1 [Example 26, N-(2-{4-[3-chloro-4-(3-fluoro-benzyloxy)-phenylamino]-quinazolin-6-ylcarbamoyl}-ethyl)-3-phenyl-acrylamide]
[1]; Homo sapiens, A-431, 72 h
  IC50: 801 nM
[2]; Homo sapiens, SK-BR-3, 72 h
  IC50: 872 nM

## O=C(CCNC(=O)NCc1ccco1)Nc1ccc2ncnc(Nc3ccc(OCc4cccc(F)c4)c(Cl)c3)c2c1 [Example 125, N-{4-[3-chloro-4-(3-fluoro-benzyloxy)-phenylamino]-quinazolin-6-yl}-3-(3-furan-2-ylmethyl-ureido)-propionamide]
[1]; Homo sapiens, A-431, 72 h
  IC50: 272 nM
[2]; Homo sapiens, SK-BR-3, 72 h
  IC50: 83 nM

## C=CC(=O)N1CCC[C@H]1C(=O)Nc1cc2c(Nc3ccc(OCc4cccnc4)c(Cl)c3)ncnc2cc1OC [Example 204, (2S)-1-acryloyl-pyrrolidine-2-carboxylic acid {4-[3-chloro-4-(pyridin-3-ylmethoxy)-phenylamino]-7-methoxy-quinazolin-6-yl}-amide]
[1]; Homo sapiens, A-431, 72 h
  IC50: 85 nM
[2]; Homo sapiens, SK-BR-3, 72 h
  IC50: 30 nM

## C=CC(=O)NCCC(=O)Nc1cc2c(Nc3ccc(OCc4ccccn4)c(Cl)c3)ncnc2cc1F [Example 192, N-(2-{4-[3-chloro-4-(pyridin-2-ylmethoxy)-phenylamino]-7-fluoro-quinazolin-6-ylcarbamoyl}-ethyl)-acrylamide]
[1]; Homo sapiens, A-431, 72 h
  IC50: 36 nM
[2]; Homo sapiens, SK-BR-3, 72 h
  IC50: 6 nM

## C=CC(=O)NCCC(=O)Nc1ccc2ncnc(Nc3ccc(OCc4ccncc4)c(Cl)c3)c2c1 [Example 174, N-(2-{4-[3-chloro-4-(pyridin-4-ylmethoxy)-phenylamino]-quinazolin-6-ylcarbamoyl}-ethyl)-acrylamide]
[1]; Homo sapiens, A-431, 72 h
  IC50: 956 nM
[2]; Homo sapiens, SK-BR-3, 72 h
  IC50: 35 nM

## C=CC(=O)N1CSC[C@H]1C(=O)Nc1cc2c(Nc3ccc(OCc4ccccn4)c(Cl)c3)ncnc2cc1OC [Example 180, (4R)-3-acryloyl-thiazolidin-4-carboxylic acid {4-[3-chloro-4-(pyridin-2-ylmethoxy)-phenylamino]-7-methoxy-quinazolin-6-yl}-amide]
[1]; Homo sapiens, A-431, 72 h
  IC50: 438 nM
[2]; Homo sapiens, SK-BR-3, 72 h
  IC50: 63 nM

## CSCC[C@H](NC(=O)CS(C)(=O)=O)C(=O)Nc1ccc2ncnc(Nc3ccc(OCc4cccc(F)c4)c(Cl)c3)c2c1 [Example 8, (2S)—N-{4-[3-chloro-4-(3-fluoro-benzyloxy)-phenylamino]-quinazolin-6-yl}-2-(2-methanesulfonyl-acetamino)-4-methanesulfanyl-butyramide]
[1]; [3]
  IC50: 308 nM
[2]; [4]
  IC50: 190 nM

## C=CC(=O)N1CCC[C@H]1C(=O)Nc1cc2c(Nc3ccc(OCCF)c(Cl)c3)ncnc2cc1OC [Example 203, (2S)-1-acryloyl-pyrrolidine-2-carboxylic acid {4-[3-chloro-4-(2-fluoro-ethoxy)-phenylamino]-7-methoxy-quinazolin-6-yl}-amide]
[1]; Homo sapiens, A-431, 72 h
  IC50: 269 nM
[2]; Homo sapiens, SK-BR-3, 72 h
  IC50: 34 nM

## O=C(CCNC(=O)OCc1ccccc1)Nc1ccc2ncnc(Nc3ccc(OCc4cccc(F)c4)c(Cl)c3)c2c1 [Example 128, (2-{4-[3-chloro-4-(3-fluoro-benzyloxy)-phenylamino]-quinazolin-6-ylcarbamoyl}-ethyl)-carbamic acid benzylester]
[1]; Homo sapiens, A-431, 72 h
  IC50: 489 nM
[2]; Homo sapiens, SK-BR-3, 72 h
  IC50: 585 nM

## C#Cc1cccc(Nc2ncnc3ccc(NC(=O)[C@@H]4CCCN4C(=O)C=C)cc23)c1 [Example 158, (2S)-1-acryloyl-pyrrolidine-2-carboxylic acid [4-(3-ethynyl-phenylamino)-quinazolin-6-yl]-amide]
[1]; Homo sapiens, A-431, 72 h
  IC50: 583 nM
[2]; Homo sapiens, SK-BR-3, 72 h
  IC50: 48 nM

## O=C(CCNC(=O)C1CC1)Nc1ccc2ncnc(Nc3ccc(OCc4cccc(F)c4)c(Cl)c3)c2c1 [Example 37, cyclopropylcarboxylic acid (2-{4-[3-chloro-4-(3-fluoro-benzyloxy)-phenylamino]-quinazolin-6-ylcarbamoyl}-ethyl)-amide]
[1]; Homo sapiens, A-431, 72 h
  IC50: 137 nM
[2]; Homo sapiens, SK-BR-3, 72 h
  IC50: 160 nM

## C=CC(=O)N1CCC1C(=O)Nc1ccc2ncnc(Nc3ccc(OCc4ccccn4)c(Cl)c3)c2c1 (centres unmarked) [Example 181, 1-acryloyl-azetidine-2-carboxylic acid {4-[3-chloro-4-(pyridin-2-ylmethoxy)-phenylamino]-quinazolin-6-yl}-amide]
[1]; [3]
  IC50: 218 nM
[2]; Homo sapiens, SK-BR-3, 72 h
  IC50: 13 nM

## C=CC(=O)N1CC(C(=O)Nc2ccc3ncnc(Nc4ccc(OCc5ccccn5)c(Cl)c4)c3c2)C1 [Example 163, 1-acryloyl-azetidine-3-carboxylic acid {4-[3-chloro-4-(pyridin-2-ylmethoxy)-phenylamino]-quinazolin-6-yl}-amide]
[1]; [3]
  IC50: 1400 nM
[2]; Homo sapiens, SK-BR-3, 72 h
  IC50: 60 nM

## C=CC(=O)NCCCC(=O)Nc1ccc2ncnc(Nc3ccc(F)c(Cl)c3)c2c1 [Example 98, 4-acryloylamino-N-[4-(3-chloro-4-fluoro-phenylamino)-quinazolin-6-yl]-butyramide]
[1]; Homo sapiens, A-431, 72 h
  IC50: 79 nM
[2]; Homo sapiens, SK-BR-3, 72 h
  IC50: 184 nM

## C=CC(=O)N1CC=C[C@H]1C(=O)Nc1cc2c(Nc3ccc(OCc4ccccn4)c(Cl)c3)ncnc2cc1OC [Example 179, (2S)-1-acryloyl-2,5-dihydro-1H-pyrrol-2-carboxylic acid {4-[3-chloro-4-(pyridin-2-ylmethoxy)-phenylamino]-7-methoxy-quinazolin-6-yl}-amide]
[1]; Homo sapiens, A-431, 72 h
  IC50: 121 nM
[2]; Homo sapiens, SK-BR-3, 72 h
  IC50: 17 nM

## C=CC(=O)N1CCC[C@H](C(=O)Nc2cc3c(Nc4ccc(OCc5ccccn5)c(Cl)c4)ncnc3cc2OC)C1 [Example 201, (3S)-1-acryloyl-piperidine-3-carboxylic acid {4-[3-chloro-4-(pyridin-2-ylmethoxy)-phenylamino]-7-methoxy-quinazolin-6-yl}-amide]
[1]; Homo sapiens, A-431, 72 h
  IC50: 148 nM
[2]; Homo sapiens, SK-BR-3, 72 h
  IC50: 25 nM

## C=CC(=O)N1CCC[C@H]1C(=O)Nc1cc2c(Nc3ccc4c(cnn4Cc4ccccn4)c3)ncnc2cc1OC [Example 185, (2S)-1-acryloyl-pyrrolidine-2-carboxylic acid [7-methoxy-4-(1-pyridin-2-ylmethyl-1H-indazol-5-ylamino)-quinazolin-6-yl]-amide]
[1]; Homo sapiens, A-431, 72 h
  IC50: 22 nM
[2]; Homo sapiens, SK-BR-3, 72 h
  IC50: 3 nM

## C=CC(=O)N1C[C@H](N(C)C)C[C@H]1C(=O)Nc1ccc2ncnc(Nc3ccc(OCc4ccccn4)c(Cl)c3)c2c1 [Example 151, (2S,4R)-1-acryloyl-4-dimethylamino-pyrrolidine-2-carboxylic acid {4-[3-chloro-4-(pyridin-2-ylmethoxy)-phenylamino]-quinazolin-6-yl}-amide]
[1]; Homo sapiens, A-431, 72 h
  IC50: 105 nM
[2]; Homo sapiens, SK-BR-3, 72 h
  IC50: 3 nM

## C=CC(=O)N1CCC[C@H]1C(=O)Nc1cc2c(Nc3ccc(OCc4ccccn4)c(Cl)c3)ncnc2cc1OCC1CC1 [Example 172, (2S)-1-acryloyl-pyrrolidine-2-carboxylic acid {4-[3-chloro-4-(pyridin-2-ylmethoxy)-phenylamino]-7-cyclopropylmethoxy-quinazolin-6-yl}-amide]
[1]; Homo sapiens, A-431, 72 h
  IC50: ≥ 10000 nM
[2]; Homo sapiens, SK-BR-3, 72 h
  IC50: 4520 nM

## C=CC(=O)NCCC(=O)Nc1ccc2ncnc(Nc3ccc(OCc4cccc(C)n4)c(Cl)c3)c2c1 [Example 144, N-(2-{4-[3-chloro-4-(6-methyl-pyridin-2-ylmethoxy)-phenylamino]-quinazolin-6-ylcarbamoyl}-ethyl)-acrylamide]
[1]; Homo sapiens, A-431, 72 h
  IC50: 73 nM
[2]; Homo sapiens, SK-BR-3, 72 h
  IC50: 8 nM

## C=CC(=O)N[C@@H](C)C(=O)Nc1cc2c(Nc3ccc(OCc4cccc(F)c4)c(Cl)c3)ncnc2cc1OCCOC [Example 214, (1S)—N-(1-{4-[3-chloro-4-(3-fluoro-benzyloxy)-phenylamino]-7-(2-methoxyethoxy)-quinazolin-6-ylcarbamoyl}-ethyl)-acrylamide]
[1]; Homo sapiens, A-431, 72 h
  IC50: 22 nM
[2]; Homo sapiens, SK-BR-3, 72 h
  IC50: 6 nM

## C=CC(=O)N1CCC[C@H]1C(=O)Nc1cc2c(Nc3ccc(OCc4cccc(F)c4)c(Cl)c3)ncnc2cc1OCCOC [Example 215, (2S)-1-acryloyl-pyrrolidine-2-carboxylic acid {4-[3-chloro-4-(3-fluoro-benzyloxy)-phenylamino]-7-(2-methoxyethoxy)-quinazolin-6-yl}-amide]
[1]; Homo sapiens, A-431, 72 h
  IC50: 59 nM
[2]; Homo sapiens, SK-BR-3, 72 h
  IC50: 11 nM

## COCC(=O)NCCC(=O)Nc1ccc2ncnc(Nc3ccc(OCc4cccnc4)c(Cl)c3)c2c1 [Example 132-2, N-{4-[3-chloro-4-(pyridin-3-ylmethoxy)-phenylamino]-quinazolin-6-yl}-3-(2-methoxy-acetylamino)-propionamide]
[1]; Homo sapiens, A-431, 72 h
  IC50: 880 nM
[2]; Homo sapiens, SK-BR-3, 72 h
  IC50: 662 nM

## C=CC(=O)N1CCC[C@H]1C(=O)Nc1cc2c(Nc3ccc(OCc4ccccn4)c(C)c3)ncnc2cc1F [Example 177, (2S)-1-acryloyl-pyrrolidine-2-carboxylic acid {7-fluoro-4-[3-methyl-4-(pyridin-2-ylmethoxy)-phenylamino]-quinazolin-6-yl}-amide]
[1]; Homo sapiens, A-431, 72 h
  IC50: 78 nM
[2]; Homo sapiens, SK-BR-3, 72 h
  IC50: 9 nM

## C=CC(=O)N1CCCCC1C(=O)Nc1ccc2ncnc(Nc3ccc(OCc4ccccn4)c(Cl)c3)c2c1 (centres unmarked) [Example 164, 1-acryloyl-piperidine-2-carboxylic acid {4-[3-chloro-4-(pyridin-2-ylmethoxy)-phenylamino]-quinazolin-6-yl}-amide]
[1]; [3]
  IC50: 105 nM
[2]; Homo sapiens, SK-BR-3, 72 h
  IC50: 12 nM

From patent US8003658B2, “Quinazoline derivatives for inhibiting cancer cell growth and method for the preparation thereof” (Hanmi Holdings Co., Ltd., priority 2004, dated 2011)
